According to the supplement of paper PMC8882468:

The compounds below were run on HCI-001 (organoid from a triple-negative breast cancer xenograft) (assay: CTG-3D luminescence at 96 h relative to day-0 seeding control (ratio to day 0); higher = more growth / less cytotoxicity; PDxO 3D drug screen, 96 h, CTG-3D normalised to day-0 seeding control.). Conditions: 12.5 pM; days in culture: 240.

Question: `Cc1cc(Nc2ncnc3ccc(NC4=NC(C)(C)CO4)cc23)ccc1Oc1ccn2ncnc2c1` [tucatinib] was tested. Which “CTG-3D luminescence at 96 h” value did it give?
Answer: The value was 1.47.

Question: Which “CTG-3D luminescence at 96 h” value does the source give for `CCN(c1cc(C#CCN2CCOCC2)cc(C(=O)NCc2c(C)cc(C)[nH]c2=O)c1C)[C@H]1CC[C@H](N(C)CCOC)CC1` here?
Answer: The value was 1.66.

Same assay, conditions: 12.5 pM; days in culture: 260

Question: For `NC1(C(=O)N[C@@H](CCO)c2ccc(Cl)cc2)CCN(c2nc[nH]c3nccc2-3)CC1` [capivasertib], which “CTG-3D luminescence at 96 h” value is on record?
Answer: The value was 2.26.

Question: With `CC(C)n1nc(-c2ccc3oc(N)nc3c2)c2c(N)ncnc21` [sapanisertib] as the compound, how does the “CTG-3D luminescence at 96 h” value read?
Answer: The value was 2.4.

Question: With `O=C(c1ccc(F)c(F)c1Nc1ccc(I)cc1F)N1CC(O)([C@@H]2CCCCN2)C1` [cobimetinib] as the compound, how does the “CTG-3D luminescence at 96 h” value read?
Answer: Its value is 2.44.

Question: `C[C@H](NC(=O)CCC(F)(F)F)C(=O)N[C@@H]1C(=O)N(CCO)c2ncccc2-c2ccccc21` [crenigacestat] was tested. Which “CTG-3D luminescence at 96 h” value did it give?
Answer: Its value is 2.03.

Question: For `Cc1cc(Nc2ncc(Cl)c(Nc3ccccc3S(=O)(=O)C(C)C)n2)c(OC(C)C)cc1C1CCNCC1` [ceritinib], which “CTG-3D luminescence at 96 h” value is on record?
Answer: The value was 2.25.

Question: With `CS(=O)(=O)c1ccc(C(=O)Nc2ccc(Cl)c(-c3ccccn3)c2)c(Cl)c1` [vismodegib] as the compound, how does the “CTG-3D luminescence at 96 h” value read?
Answer: The value was 2.49.

Question: How did the “CTG-3D luminescence at 96 h” value turn out when `NC(=O)c1cccc2cn(-c3ccc([C@@H]4CCCNC4)cc3)nc12` [niraparib] was run?
Answer: The value was 2.65.

Question: `Cc1cc(Nc2ncnc3ccc(NC4=NC(C)(C)CO4)cc23)ccc1Oc1ccn2ncnc2c1` [tucatinib] was tested. Which “CTG-3D luminescence at 96 h” value did it give?
Answer: The value was 2.62.

Question: With `CCN(c1cc(C#CCN2CCOCC2)cc(C(=O)NCc2c(C)cc(C)[nH]c2=O)c1C)[C@H]1CC[C@H](N(C)CCOC)CC1` as the compound, how does the “CTG-3D luminescence at 96 h” value read?
Answer: Its value is 2.3.

Same assay, conditions: 12.5 pM; days in culture: 269

Question: For `NC1(C(=O)N[C@@H](CCO)c2ccc(Cl)cc2)CCN(c2nc[nH]c3nccc2-3)CC1` [capivasertib], which “CTG-3D luminescence at 96 h” value is on record?
Answer: The value was 1.69.

Question: Which “CTG-3D luminescence at 96 h” value does the source give for `CC(C)n1nc(-c2ccc3oc(N)nc3c2)c2c(N)ncnc21` [sapanisertib] here?
Answer: The value was 1.45.

Question: With `O=C(c1ccc(F)c(F)c1Nc1ccc(I)cc1F)N1CC(O)([C@@H]2CCCCN2)C1` [cobimetinib] as the compound, how does the “CTG-3D luminescence at 96 h” value read?
Answer: The value was 1.48.

Question: Which “CTG-3D luminescence at 96 h” value does the source give for `C[C@H](NC(=O)CCC(F)(F)F)C(=O)N[C@@H]1C(=O)N(CCO)c2ncccc2-c2ccccc21` [crenigacestat] here?
Answer: Its value is 1.62.

Question: How did the “CTG-3D luminescence at 96 h” value turn out when `Cc1cc(Nc2ncc(Cl)c(Nc3ccccc3S(=O)(=O)C(C)C)n2)c(OC(C)C)cc1C1CCNCC1` [ceritinib] was run?
Answer: Its value is 1.92.

Question: `CS(=O)(=O)c1ccc(C(=O)Nc2ccc(Cl)c(-c3ccccn3)c2)c(Cl)c1` [vismodegib] was tested. Which “CTG-3D luminescence at 96 h” value did it give?
Answer: Its value is 1.57.

Question: For `NC(=O)c1cccc2cn(-c3ccc([C@@H]4CCCNC4)cc3)nc12` [niraparib], which “CTG-3D luminescence at 96 h” value is on record?
Answer: Its value is 1.85.

Question: With `Cc1cc(Nc2ncnc3ccc(NC4=NC(C)(C)CO4)cc23)ccc1Oc1ccn2ncnc2c1` [tucatinib] as the compound, how does the “CTG-3D luminescence at 96 h” value read?
Answer: The value was 1.48.

Question: With `CCN(c1cc(C#CCN2CCOCC2)cc(C(=O)NCc2c(C)cc(C)[nH]c2=O)c1C)[C@H]1CC[C@H](N(C)CCOC)CC1` as the compound, how does the “CTG-3D luminescence at 96 h” value read?
Answer: The value was 1.6.

Same assay, conditions: 12.5 pM; days in culture: 327

Question: Which “CTG-3D luminescence at 96 h” value does the source give for `NC1(C(=O)N[C@@H](CCO)c2ccc(Cl)cc2)CCN(c2nc[nH]c3nccc2-3)CC1` [capivasertib] here?
Answer: Its value is 1.71.

Question: `CC(C)n1nc(-c2ccc3oc(N)nc3c2)c2c(N)ncnc21` [sapanisertib] was tested. Which “CTG-3D luminescence at 96 h” value did it give?
Answer: The value was 1.36.

Question: Which “CTG-3D luminescence at 96 h” value does the source give for `O=C(c1ccc(F)c(F)c1Nc1ccc(I)cc1F)N1CC(O)([C@@H]2CCCCN2)C1` [cobimetinib] here?
Answer: Its value is 1.36.

Question: Which “CTG-3D luminescence at 96 h” value does the source give for `C[C@H](NC(=O)CCC(F)(F)F)C(=O)N[C@@H]1C(=O)N(CCO)c2ncccc2-c2ccccc21` [crenigacestat] here?
Answer: The value was 1.46.

Question: How did the “CTG-3D luminescence at 96 h” value turn out when `Cc1cc(Nc2ncc(Cl)c(Nc3ccccc3S(=O)(=O)C(C)C)n2)c(OC(C)C)cc1C1CCNCC1` [ceritinib] was run?
Answer: The value was 1.58.

Question: For `CS(=O)(=O)c1ccc(C(=O)Nc2ccc(Cl)c(-c3ccccn3)c2)c(Cl)c1` [vismodegib], which “CTG-3D luminescence at 96 h” value is on record?
Answer: The value was 2.09.

Question: With `NC(=O)c1cccc2cn(-c3ccc([C@@H]4CCCNC4)cc3)nc12` [niraparib] as the compound, how does the “CTG-3D luminescence at 96 h” value read?
Answer: Its value is 1.97.

Question: Which “CTG-3D luminescence at 96 h” value does the source give for `Cc1cc(Nc2ncnc3ccc(NC4=NC(C)(C)CO4)cc23)ccc1Oc1ccn2ncnc2c1` [tucatinib] here?
Answer: The value was 1.8.

Question: With `CCN(c1cc(C#CCN2CCOCC2)cc(C(=O)NCc2c(C)cc(C)[nH]c2=O)c1C)[C@H]1CC[C@H](N(C)CCOC)CC1` as the compound, how does the “CTG-3D luminescence at 96 h” value read?
Answer: Its value is 2.1.

Same assay, conditions: 12.5 pM; days in culture: 346

Question: `NC1(C(=O)N[C@@H](CCO)c2ccc(Cl)cc2)CCN(c2nc[nH]c3nccc2-3)CC1` [capivasertib] was tested. Which “CTG-3D luminescence at 96 h” value did it give?
Answer: The value was 1.49.

Question: `CC(C)n1nc(-c2ccc3oc(N)nc3c2)c2c(N)ncnc21` [sapanisertib] was tested. Which “CTG-3D luminescence at 96 h” value did it give?
Answer: Its value is 1.38.

Question: How did the “CTG-3D luminescence at 96 h” value turn out when `O=C(c1ccc(F)c(F)c1Nc1ccc(I)cc1F)N1CC(O)([C@@H]2CCCCN2)C1` [cobimetinib] was run?
Answer: The value was 1.24.

Question: How did the “CTG-3D luminescence at 96 h” value turn out when `C[C@H](NC(=O)CCC(F)(F)F)C(=O)N[C@@H]1C(=O)N(CCO)c2ncccc2-c2ccccc21` [crenigacestat] was run?
Answer: The value was 1.3.

Question: How did the “CTG-3D luminescence at 96 h” value turn out when `Cc1cc(Nc2ncc(Cl)c(Nc3ccccc3S(=O)(=O)C(C)C)n2)c(OC(C)C)cc1C1CCNCC1` [ceritinib] was run?
Answer: The value was 1.59.

Question: For `CS(=O)(=O)c1ccc(C(=O)Nc2ccc(Cl)c(-c3ccccn3)c2)c(Cl)c1` [vismodegib], which “CTG-3D luminescence at 96 h” value is on record?
Answer: The value was 1.82.
